Laboratory results as given in the NIST ThermoML archive (doi:10.1016/j.jct.2006.12.012).
Numbers after ± are expanded uncertainties.

Tests used:
[1] = 101 kPa, Liquid
[2] = xn = mol fraction of the nth substance listed; conditions: 101 kPa, Liquid, x2 = 0

Structure (SMILES)	mass density ([1]; 298.15 K)	viscosity ([1]; 298.15 K)	mass density ([1]; 303.15 K)	viscosity ([1]; 303.15 K)	mass density ([1]; 308.15 K)	viscosity ([1]; 308.15 K)	mass density ([1]; 313.15 K)	viscosity ([1]; 313.15 K)	mass density ([1]; 318.15 K)	viscosity ([1]; 318.15 K)	viscosity ([2]; 298.15 K)	viscosity ([2]; 303.15 K)	viscosity ([2]; 308.15 K)	viscosity ([2]; 313.15 K)	viscosity ([2]; 318.15 K)
C[S+](C)[O-] [dimethyl sulfoxide]	1096.29 ± 0.28 kg/m3	1.996 ± 0.024 mPa·s	1091.44 ± 0.28 kg/m3	1.836 ± 0.022 mPa·s	1086.41 ± 0.27 kg/m3	1.669 ± 0.02 mPa·s	1081.59 ± 0.26 kg/m3	1.535 ± 0.019 mPa·s	1076.46 ± 0.25 kg/m3	1.393 ± 0.017 mPa·s	–	–	–	–	–
O [water] + C[S+](C)[O-]	–	–	–	–	–	–	–	–	–	–	0.8901 ± 0.012 mPa·s	0.7973 ± 0.011 mPa·s	0.7193 ± 0.0098 mPa·s	0.653 ± 0.009 mPa·s	0.5961 ± 0.0083 mPa·s
